In patent US20160346320A1, “SUBSTANCE FOR INHIBITING TISSUE CALCIFICATION, TISSUE FIBROSATION AND AGE-RELATED DISEASES” (Fresenius Kabi Deutschland GmbH, priority 2013, published 2016):
Entries after “also recorded” stand apart in the source; their conditions may differ.

Tests used:
[1] = growth and body weight of klotho mice; type: in vivo; details: for body weight / growth deficit: NH4Cl 0.28 M or acetazolamide 800 mg/l in drinking water
NFAT5 [2] = test: NFAT5 expression in aortas of klotho mice; type: in vivo; details: NH4Cl 0.28 M in drinking water
[3] = system: alkaline phosphatase (ALP) mRNA; type: cell-based, human
Runx2 mRNA = type: cell-based, human
TGFβ1 mRNA = type: cell-based, human
SOX9 = SOX9 expression in HAoSMCs, quantitative RT-PCR; type: cell-based, human; details: NH4Cl 500 μM
Method: (§1) The following experimental studies were executed: Primary human aortic smooth muscle cells (HAoSMCs, Invitrogen) were cultivated in Waymouth's MB 752/1 medium and Ham's F12 nutrient mixture (1:1, Gibco, Life Technologies) with the addition of 10% FBS (Gibco, Life Technologies). In all experiments, confluent HAoSMCs, passages 4 to 11, were used. The cells were treated for 24 hours with 2 mM β-glycerophosphate (Sigma-Aldrich) with or without simultaneous addition of 0.5 mM ammonium salts or 100 μM chloroquine diphosphate (Sigma-Aldrich). Quantitative RT-PCR (real time polymerase chain reaction) were carried out, as described previously (Voelkl, J., Alesutan, I., Leibrock, C. B., Quintanilla-Martinez, L., Kuhn, V., Feger, M., Mia, S., Ahmed, M. S., Rosenblatt, K. P., Kuro, O., Lang, F.: Spironolactone ameliorates PIT1-dependent vascular osteoinduction in klotho-hypomorphic mice. J. Clin Invest 2013; February 1; 123(2):812-22). For this, HAoSMCs were washed and total RNA were isolated using Trifast reagent (Peqlab) according to the directions from the manufacture. […] The total RNA were likewise isolated with Trifast reagent (Peqlab) in accordance with the directions from the manufacture. In each case, 2 μg RNA of the human as well as the murine samples were used for the reverse transcription of the RNA with oligo(dT)12-18 primers (Invitrogen) and SuperScripIII Reverse Transcriptase (Invitrogen). Quantitative real-time PCR were carried out with an iCycler iQ™ Real-Time PCR Detection System (Bio-Rad Laboratories) and iQ™ Sybr Green Supermix (Bio-Rad Laboratories) according to the manufacturer's instructions. The following primers were used (5′ orientation): […]
(§2) The specificity of the PCR products was checked by means of melting curve analysis and agarose gel electrophoresis. All PCRs were each carried out twice, and the multiple mRNA quantities were calculated by means of the […] methods with GAPDH as the internal reference.

NFAT5 [4] = test: NFAT5 expression in HAoSMCs, quantitative RT-PCR; type: cell-based, human; details: NH4Cl 500 μM
Method: as §1, §2

[5] = blood chemistry: plasma concentrations in klotho mice; type: in vivo; details: NH4Cl 0.28 M or acetazolamide 800 mg/l in drinking water
[6] = HAoSMCs transfected with NFAT5, 2 mM β-glycerophosphate
[7] = HAoSMCs transfected with empty vectors, 2 mM β-glycerophosphate
[8] = HAoSMCs, 2 mM β-glycerophosphate

## Cl.N [ammonium chloride, Ammonium chloride]
[1]
  body weight: nearly entirely neutralize the weight deficiency
  growth deficit: nearly entirely neutralized
[1]; wild mice (klotho^+/+), NH4Cl 0.28 M in drinking water
  growth: no growth stimulation
NFAT5 [2]
  expression of NFAT5 in aortas: normalization of the transcription level
[3]
  ALP mRNA expression increase: reduce the expression; also recorded: suppression of the expression increase
Runx2 mRNA
  Runx2 mRNA expression increase: inhibit the expression; also recorded: suppressed
TGFβ1 mRNA
  TGFβ1 mRNA expression increase: inhibit the formation of TGFβ1; also recorded: prevented
SOX9; [6]
  expression of SOX9: prevents the effect of NH4Cl; also recorded: remained high
SOX9; [7]
  expression of SOX9: sink back to a normal level
SOX9; [8]
  transcription level of SOX9: reduced the expression
NFAT5 [4]; [6]
  expression of NFAT5: remained high
NFAT5 [4]; [7]
  expression of NFAT5: sink back to a normal level
NFAT5 [4]; [8]
  transcription level of NFAT5: reduced the expression; also recorded: reverse the increase

## N.N.O=S(=O)(O)O [ammonium sulfate, Ammonium sulfate]
[3]
  ALP mRNA expression increase: reduce the expression; also recorded: suppression of the expression increase
Runx2 mRNA
  Runx2 mRNA expression increase: inhibit the expression; also recorded: suppressed
TGFβ1 mRNA
  TGFβ1 mRNA expression increase: inhibit the formation of TGFβ1; also recorded: lessened

## CC(=O)Nc1nnc(S(N)(=O)=O)s1 [acetazolamide]
[1]
  body weight: could be increased
  growth deficit: could not be fully compensated
[5]
  concentration of matrix gla protein (MGP) in plasma: fully normalize

## Ammonium citrate
TGFβ1 mRNA
  TGFβ1 mRNA expression increase: inhibit the formation of TGFβ1; also recorded: lessened

## CCN(CC)CCCC(C)Nc1ccnc2cc(Cl)ccc12 (racemic) [chloroquine, (RS)—N′-(7-chloroquinoline-4-yl)-N,N-diethyl-pentane-1,4-diamine]
[3]
  ALP mRNA expression increase: reduce the expression; also recorded: suppression of the ALP mRNA expression increase

## CC(O)C(=O)O.N (stereo not shown) [ammonium lactate, Ammonium lactate]
TGFβ1 mRNA
  TGFβ1 mRNA expression increase: inhibit the formation of TGFβ1; also recorded: lessened
